Measured values reported in US11312690B2, “Compounds, compositions, methods for treating diseases, and methods for preparing compounds” (UNIVERSITY OF LOUISVILLE RESEARCH FOUNDATION, INC., priority 2015, dated 2022).

Columns and labels:
[1] = tested on: MiaPaCa-2; assay: Soft agar colony formation; format: cell-based, human
Experimental: (§1) FIG. 1. Effects of some compounds of Formula (I) on RalGEF inhibitor on soft agar growth and normal growth in 2D of pancreatic carcinoma cell lines. In FIGS. 1A and 1B, Panc-1 (ATCC® CRL-1469™) and MiaPaCa-2 (ATCC® CRL-1420™) mutant Ras containing pancreatic tumor cell lines were plated in soft agar in the presence of 10 μM or 0.9 μM of compound I-1 and scored for the formation of colonies. In FIGS. 1C and 1D, compound I-1 was then tested for the ability to inhibit cell growth on the same cell lines under normal 2D growth conditions on plastic. “0” is the carrier. Cells were seeded at the same density and scored after two weeks in culture.
(§2) Human pancreatic tumor cell lines MiaPaca-2 and Panc-1 contain activated K-Ras and were used in the initial screen to identify compound I-1. Soft agar colony formation remains an established in vitro assay to predict tumorigenicity and was used to predict tumorigenicity for compound I-1.
Several other compounds were tested against the Mia Paca-2 cell line using the soft agar colony formation in vitro assay in two experiments. For each table, DMSO was used as a control and, as such, within each table, the DMSO colonies are the measure against which each measurement in the corresponding table is compared.

[2] = tested on: Panc-1; assay: Soft agar colony formation; format: cell-based, human
Experimental: as §1, §2

[3] = tested on: A549 (lung cancer); assay: Tumorigenic phenotype in vitro, Ras driven tumor cell line; format: cell-based; settings: data not shown
Text: (§3) (ATCC® HTB-75™)(ovarian cancer); D283 Med (ATCC® HTB-185™) (Medulloblastoma); A549 (ATCC® CCL-185™) (lung cancer); and LNCaP clone FGC (ATCC® CRL1740™) (prostate cancer).

[4] = tested on: Caov-3 [Caov3] (ovarian cancer); assay: as above; format: cell-based; settings: data not shown
Text: as §3

[5] = tested on: D283 Med (Medulloblastoma); assay: as above; format: cell-based; settings: data not shown
Text: as §3

[6] = tested on: LNCaP clone FGC (prostate cancer); assay: as above; format: cell-based; settings: data not shown
Text: as §3

[7] = tested on: MiaPaCa-2; assay: Normal 2D growth on plastic; format: cell-based, human; settings: normal 2D growth conditions on plastic, 1 week, FIG. 1D
Experimental: (§4) FIG. 1. Effects of some compounds of Formula (I) on RalGEF inhibitor on soft agar growth and normal growth in 2D of pancreatic carcinoma cell lines. In FIGS. 1A and 1B, Panc-1 (ATCC® CRL-1469™) and MiaPaCa-2 (ATCC® CRL-1420™) mutant Ras containing pancreatic tumor cell lines were plated in soft agar in the presence of 10 μM or 0.9 μM of compound I-1 and scored for the formation of colonies. In FIGS. 1C and 1D, compound I-1 was then tested for the ability to inhibit cell growth on the same cell lines under normal 2D growth conditions on plastic. “0” is the carrier. […]

[8] = tested on: Panc-1; assay: Normal 2D growth on plastic; format: cell-based, human; settings: normal 2D growth conditions on plastic, 1 week, FIG. 1C
Experimental: as §4

[9] = tested on: Ral; assay: Endogenous Ral activation in cells with endogenous hyper-activated Ras (RalBP1 pull down kit); format: cell-based; settings: 10 μM, untransfected cells, FIG. 4
Experimental: (§5) Specific Inhibition of endogenous Ras/RalGEF signaling. FIG. 4. Specific suppression of Ral activation by some compounds of Formula (I). Cells with endogenous hyper-activated Ras were assayed for endogenous Ral activation in the presence or absence of inhibitor (10 μM) using a Cell Biolabs (SanDiego Calif.) kit. Compound I-1 was dissolved in DMSO; DMSO serves as the carrier negative control. IP is immunoprecipitation. IB is immunoblot. Cell lysates were then assayed for the levels of MAPK pathway activation using a phosphoERK antibody. They were the same. Actin is a loading control.
(§6) RalGEFs drive Ral into the active, GTP bound form so it can bind its effector RalBP1. […] Commercially available kits available from several vendors use RalBP1 attached to beads as an affinity reagent specific to the active form of Ral. By measuring the level of activated Ral and comparing it to the total levels of Ral, it is possible to measure the state of endogenous Ral activation. We assayed untransfected cells containing endogenous hyper-activated Ras for the effects of compound I-1 treatment on endogenous levels of active Ral levels.

[10] = tested on: Ras/Raf/MAPK pathway; assay: MAPK pathway activation by phosphoERK antibody in cells with endogenous hyper-activated Ras; format: cell-based; settings: 10 μM
Experimental: as §5, §6

[11] = Preliminary in vivo toxicity; set-up: species or system mice; settings: 25 mg/kg, ip injection over 2 weeks, data not shown
[12] = tested on: RalA; assay: Activated RalA pull down in lung tissue of Mia-PaCa2 xenograft mice; format: in vivo, NRG mice; settings: treated vs carrier treated xenograft mouse, FIG. 5
Experimental: Some compounds of Formula (I) suppress Ral GTP levels in vivo—FIG. 5 NRG mice were provided with s.c. xenografts of Mia-PaCa2 cells. Tissue from the lungs of a carrier treated xenograft mouse and a compound I-1 treated mouse were assayed for the levels of activated RalA using a pull down assay kit using the manufacter's protocol (Cat. #BK040 from Cytoskeleton, Inc., Denver Colo.).

## COc1cccc(CNc2nc(CN(C)Cc3cccc(OC)c3)nc3sc(C)c(C)c23)c1 [Compound I-1]
[1]; 10 μM, FIG. 1B
  ability of the cells to grow in soft agar: almost completely blocked
[1]; 10 μM, Table 2 experiment, DMSO control 182 ± 7 colonies
  Colonies in agar: 0 ± 0
[1]; 10 μM, Table 3 experiment, DMSO control 1686 ± 114 colonies
  Colonies in agar: 12 ± 1
[1]; FIG. 1B
  tumorigenic phenotype in vitro: blocks the tumorigenic phenotype in vitro at low μM or sub μM levels
[1]; Homo sapiens, MIA PaCa-2, read-out: IC50 (concentration that inhibits 50% of colony formation)
  IC50: < 1000 nM
[2]; 10 μM, FIG. 1A
  ability of the cells to grow in soft agar: almost completely blocked
[2]; FIG. 1A
  tumorigenic phenotype in vitro: blocks the tumorigenic phenotype in vitro at low μM or sub μM levels
[2]; Homo sapiens, PANC-1, soft agar, titration experiments, data not shown, read-out: IC50 (concentration that inhibits 50% of colony formation)
  IC50: < 1000 nM
[3]
  tumorigenic phenotype in vitro: blocks the tumorigenic phenotype in vitro
[4]
  tumorigenic phenotype in vitro: blocks the tumorigenic phenotype in vitro
[5]
  tumorigenic phenotype in vitro: blocks the tumorigenic phenotype in vitro
[6]
  tumorigenic phenotype in vitro: blocks the tumorigenic phenotype in vitro
[7]
  cell growth in 2D: no reduction in growth
[8]
  cell growth in 2D: no reduction in growth
[9]
  levels of endogenous active Ral (GTP bound): suppressed the levels of endogenous active Ral
[10]
  Ras/Raf/MAPK pathway activation (levels of phospho ERK): no inhibition of the Ras/Raf/MAPK pathway activation was detected
[11]
  deleterious effect on mice (behavior, weight): no obvious deleterious effect
[12]
  levels of active RalA in lung tissue: reduced levels of active RalA
